Test results from ChEMBL document CHEMBL4806959, “Antagonistic peptides for frizzled-1 and frizzled-2” (2015).
Activity calls are given as the source filed them. The rule behind the calls is not given here. Residues, ends and D or L forms follow the SMILES beside them.

Key:
[1] = target: Frizzled-1 (Rattus norvegicus) (UniProt Q08463); test: Antagonist activity at Wnt3a-stimulated rat frizzled-1 expressed in CHO cells up to 10 uM incubated for 24 hrs by luciferase reporter gene assay; type: cell-based; details: dose microM <=10, time 24.0 hrs
Frizzled-1 (Rattus norvegicus), sequence (Q08463 whole entry): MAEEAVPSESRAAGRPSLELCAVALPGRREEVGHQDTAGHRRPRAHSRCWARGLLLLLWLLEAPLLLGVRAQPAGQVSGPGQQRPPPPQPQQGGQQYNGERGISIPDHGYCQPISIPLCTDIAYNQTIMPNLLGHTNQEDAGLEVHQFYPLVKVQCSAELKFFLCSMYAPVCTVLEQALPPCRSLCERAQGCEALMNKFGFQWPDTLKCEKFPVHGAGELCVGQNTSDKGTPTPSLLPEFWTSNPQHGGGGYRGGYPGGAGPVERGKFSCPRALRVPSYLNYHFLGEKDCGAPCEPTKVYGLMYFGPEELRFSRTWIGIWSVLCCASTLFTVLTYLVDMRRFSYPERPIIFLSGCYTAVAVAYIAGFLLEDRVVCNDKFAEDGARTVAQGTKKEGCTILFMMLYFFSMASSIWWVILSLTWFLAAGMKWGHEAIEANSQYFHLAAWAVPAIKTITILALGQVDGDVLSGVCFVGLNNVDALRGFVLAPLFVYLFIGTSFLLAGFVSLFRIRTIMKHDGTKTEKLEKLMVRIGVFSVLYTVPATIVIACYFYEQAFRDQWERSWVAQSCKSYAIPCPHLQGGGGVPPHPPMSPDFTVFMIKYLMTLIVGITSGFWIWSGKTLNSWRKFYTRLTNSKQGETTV

[2] = target: Frizzled-2 (Rattus norvegicus) (UniProt Q08464); test: Antagonist activity at Wnt3a-stimulated rat frizzled-2 expressed in CHO cells up to 10 uM incubated for 24 hrs by luciferase reporter gene assay; type: cell-based; details: dose microM <=10, time 24.0 hrs
Frizzled-2 (Rattus norvegicus), sequence (Q08464 29-570 limits assumed): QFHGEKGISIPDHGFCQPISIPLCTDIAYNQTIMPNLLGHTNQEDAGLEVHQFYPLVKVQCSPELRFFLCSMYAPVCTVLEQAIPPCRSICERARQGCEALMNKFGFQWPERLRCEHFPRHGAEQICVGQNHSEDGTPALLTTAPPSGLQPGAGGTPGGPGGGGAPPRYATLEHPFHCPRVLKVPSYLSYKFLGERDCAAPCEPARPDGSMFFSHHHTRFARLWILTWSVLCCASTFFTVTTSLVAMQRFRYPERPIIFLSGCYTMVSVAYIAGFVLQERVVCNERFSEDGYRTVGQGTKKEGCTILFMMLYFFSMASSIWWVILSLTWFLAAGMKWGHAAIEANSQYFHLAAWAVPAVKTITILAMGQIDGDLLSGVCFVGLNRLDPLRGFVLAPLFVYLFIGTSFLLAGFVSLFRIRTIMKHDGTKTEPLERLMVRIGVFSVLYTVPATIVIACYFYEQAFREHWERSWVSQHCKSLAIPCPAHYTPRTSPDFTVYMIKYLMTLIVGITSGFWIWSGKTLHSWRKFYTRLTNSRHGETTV

[3] = target: Frizzled-1 (Rattus norvegicus) (UniProt Q08463); test: Antagonist activity at Wnt3a-stimulated rat frizzled-1 expressed in African green monkey COS7 cells up to 10 uM incubated for 24 hrs by luciferase reporter gene assay; type: cell-based; details: dose microM <=10, time 24.0 hrs
[4] = target: Frizzled-2 (Rattus norvegicus) (UniProt Q08464); test: Antagonist activity at Wnt3a-stimulated rat frizzled-2 expressed in African green monkey COS7 cells up to 10 uM incubated for 24 hrs by luciferase reporter gene assay; type: cell-based; details: dose microM <=10, time 24.0 hrs
Frizzled-2 = Frizzled-2 (Homo sapiens, UniProt Q14332); test: Antagonist activity at Wnt3a-stimulated frizzled-2 (unknown origin) expressed in human HEK293superTOP flash cells at 10 nM incubated for 24 hrs by luciferase reporter gene assay; type: functional, cell-based; details: HEK293
Frizzled-2, sequence (Q14332 24-565 limits assumed): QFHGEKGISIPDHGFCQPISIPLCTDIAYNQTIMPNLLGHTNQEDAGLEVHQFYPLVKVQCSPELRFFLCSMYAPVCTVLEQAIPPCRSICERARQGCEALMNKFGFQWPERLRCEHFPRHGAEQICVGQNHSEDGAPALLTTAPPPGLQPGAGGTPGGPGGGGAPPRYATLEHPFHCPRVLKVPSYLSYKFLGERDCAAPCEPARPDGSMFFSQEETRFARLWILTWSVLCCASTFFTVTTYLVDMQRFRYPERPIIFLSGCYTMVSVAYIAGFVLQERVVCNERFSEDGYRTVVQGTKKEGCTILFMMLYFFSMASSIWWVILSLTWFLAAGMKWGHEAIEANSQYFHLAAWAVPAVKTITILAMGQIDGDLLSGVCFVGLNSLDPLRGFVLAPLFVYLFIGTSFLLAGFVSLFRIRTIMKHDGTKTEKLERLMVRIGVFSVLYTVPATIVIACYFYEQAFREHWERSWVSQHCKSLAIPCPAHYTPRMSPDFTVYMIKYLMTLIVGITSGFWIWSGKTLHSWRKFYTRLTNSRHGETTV

[5] = target: Frizzled-1 (Homo sapiens) (UniProt Q9UP38); test: Antagonist activity at Wnt3a-stimulated frizzled-1 (unknown origin) expressed in human HEK293superTOP flash cells at 10 nM incubated for 24 hrs by luciferase reporter gene assay; type: functional, cell-based; details: HEK293
Frizzled-1 (Homo sapiens), sequence (Q9UP38 70-647 limits assumed): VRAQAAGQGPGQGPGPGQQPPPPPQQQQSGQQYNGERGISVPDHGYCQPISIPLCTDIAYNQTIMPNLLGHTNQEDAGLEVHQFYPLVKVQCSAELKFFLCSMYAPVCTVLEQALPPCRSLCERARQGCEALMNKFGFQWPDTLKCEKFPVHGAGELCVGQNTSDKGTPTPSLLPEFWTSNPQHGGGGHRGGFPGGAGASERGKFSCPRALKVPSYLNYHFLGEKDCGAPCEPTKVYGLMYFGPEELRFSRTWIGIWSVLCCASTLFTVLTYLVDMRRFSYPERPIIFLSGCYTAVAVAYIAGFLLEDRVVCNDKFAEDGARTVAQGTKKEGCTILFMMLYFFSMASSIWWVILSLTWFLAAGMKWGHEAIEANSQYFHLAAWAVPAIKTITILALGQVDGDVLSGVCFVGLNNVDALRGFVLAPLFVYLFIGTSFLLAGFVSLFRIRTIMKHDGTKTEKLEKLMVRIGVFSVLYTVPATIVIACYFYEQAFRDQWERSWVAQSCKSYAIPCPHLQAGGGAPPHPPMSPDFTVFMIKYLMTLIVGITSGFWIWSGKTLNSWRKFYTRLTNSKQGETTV

Row | Compound | inhibition [1] | inhibition [2] | inhibition [3] | inhibition [4] | inhibition (Frizzled-2) | inhibition [5]
1 | CSCC[C@H](NC(=O)CNC(=O)[C@H](CCC(=O)O)NC(=O)[C@H](CO)NC(=O)[C@@H](NC(=O)[C@H](C)NC(=O)[C@H](CC(N)=O)NC(=O)[C@H](CS)NC(C)=O)[C@@H](C)O)C(=O)N[C@@H](CC(=O)O)C(=O)NCC(=O)N[C@@H](CS)C(=O)N[C@@H](CCC(=O)O)C(=O)N[C@@H](CC(C)C)C(N)=O (Ac-CNATSEGMDGCEL-NH2) | inactive | inactive | inactive | inactive | inactive | inactive
2 | CC[C@H](C)[C@H](NC(=O)CNC(=O)[C@H](Cc1cnc[nH]1)NC(=O)[C@H](CO)NC(=O)[C@H](CO)NC(=O)[C@@H](NC(=O)[C@H](CC(N)=O)NC(=O)[C@@H](N)CS)C(C)C)C(=O)N[C@@H](CC(=O)O)C(=O)NCC(=O)N[C@@H](CS)C(=O)N[C@@H](CC(=O)O)C(=O)N[C@@H](CC(C)C)C(=O)O (H-CNVSSHGIDGCDL-OH) | inactive | inactive | inactive | inactive | inactive | inactive
3 | CSCC[C@H](NC(=O)[C@H](C)NC(=O)[C@H](CCC(=O)O)NC(=O)[C@H](CO)NC(=O)[C@H](C)NC(=O)[C@H](CCCCN)NC(=O)[C@H](CC(N)=O)NC(=O)[C@H](CS)NC(C)=O)C(=O)N[C@@H](C)C(=O)NCC(=O)N[C@@H](CS)C(=O)N[C@@H](CCC(=O)O)C(=O)N[C@@H](CC(C)C)C(N)=O (Ac-CNKASEAMAGCEL-NH2) | inactive | inactive | inactive | inactive | inactive | inactive
4 | CSCC[C@H](NC(=O)[C@H](C)NC(=O)[C@H](CCC(=O)O)NC(=O)[C@H](CO)NC(=O)[C@@H](NC(=O)[C@H](CCCCN)NC(=O)[C@H](CC(N)=O)NC(=O)[C@H](CS)NC(C)=O)[C@@H](C)O)C(=O)N[C@@H](CC(=O)O)C(=O)NCC(=O)N[C@@H](CS)C(=O)N[C@@H](CCC(=O)O)C(=O)N[C@@H](CC(C)C)C(N)=O (Ac-CNKTSEAMDGCEL-NH2) | inactive | inactive | inactive | inactive | inactive | inactive
5 | CSCC[C@H](NC(=O)CNC(=O)[C@H](CCC(=O)O)NC(=O)[C@H](CO)NC(=O)[C@@H](NC(=O)[C@H](CCCCN)NC(=O)[C@H](CC(N)=O)NC(=O)[C@H](CS)NC(C)=O)[C@@H](C)O)C(=O)N[C@@H](CC(=O)O)C(=O)NCC(=O)N[C@@H](C)C(=O)N[C@@H](CCC(=O)O)C(=O)N[C@@H](CC(C)C)C(N)=O (Ac-CNKTSEGMDGAEL-NH2) | inactive | inactive | inactive | inactive | inactive | inactive
6 | CSCC[C@H](NC(=O)CNC(=O)[C@H](CCC(=O)O)NC(=O)[C@H](CO)NC(=O)[C@@H](NC(=O)[C@H](CCCCN)NC(=O)[C@H](CC(N)=O)NC(=O)[C@H](C)NC(C)=O)[C@@H](C)O)C(=O)N[C@@H](CC(=O)O)C(=O)NCC(=O)N[C@@H](CS)C(=O)N[C@@H](CCC(=O)O)C(=O)N[C@@H](CC(C)C)C(N)=O (Ac-ANKTSEGMDGCEL-NH2) | inactive | inactive | inactive | inactive | inactive | inactive
7 | CSCC[C@H](NC(=O)CNC(=O)[C@H](CCC(=O)O)NC(=O)[C@H](CO)NC(=O)[C@H](C)NC(=O)[C@H](CCCCN)NC(=O)[C@H](CC(N)=O)NC(=O)[C@H](CS)NC(C)=O)C(=O)N[C@@H](CC(=O)O)C(=O)NCC(=O)N[C@@H](CS)C(=O)N[C@@H](CCC(=O)O)C(=O)N[C@@H](CC(C)C)C(N)=O (Ac-CNKASEGMDGCEL-NH2) | inactive | inactive | inactive | inactive | inactive | inactive
8 | CSCC[C@H](NC(=O)CNC(=O)[C@H](CCC(=O)O)NC(=O)[C@H](C)NC(=O)[C@@H](NC(=O)[C@H](CCCCN)NC(=O)[C@H](CC(N)=O)NC(=O)[C@H](CS)NC(C)=O)[C@@H](C)O)C(=O)N[C@@H](CC(=O)O)C(=O)NCC(=O)N[C@@H](CS)C(=O)N[C@@H](CCC(=O)O)C(=O)N[C@@H](CC(C)C)C(N)=O (Ac-CNKTAEGMDGCEL-NH2) | inactive | inactive | inactive | inactive | inactive | inactive
9 | CSCC[C@H](NC(=O)CNC(=O)[C@H](CCC(=O)O)NC(=O)[C@H](CO)NC(=O)[C@@H](NC(=O)[C@H](CCCCN)NC(=O)[C@H](CC(N)=O)NC(=O)[C@H](CS)NC(C)=O)[C@@H](C)O)C(=O)N[C@@H](CC(=O)O)C(=O)N[C@@H](C)C(=O)N[C@@H](CS)C(=O)N[C@@H](CCC(=O)O)C(=O)N[C@@H](CC(C)C)C(N)=O (Ac-CNKTSEGMDACEL-NH2) | inactive | inactive | inactive | inactive | inactive | inactive
10 | CC(=O)N[C@@H](CS)C(=O)N[C@@H](CC(N)=O)C(=O)N[C@@H](CCCCN)C(=O)N[C@H](C(=O)N[C@@H](CO)C(=O)N[C@@H](CCC(=O)O)C(=O)NCC(=O)N[C@@H](C)C(=O)N[C@@H](CC(=O)O)C(=O)NCC(=O)N[C@@H](CS)C(=O)N[C@@H](CCC(=O)O)C(=O)N[C@@H](CC(C)C)C(N)=O)[C@@H](C)O (Ac-CNKTSEGADGCEL-NH2) | inactive | inactive | inactive | inactive | inactive | inactive

Now from value to compound:

Row | inhibition [1] | inhibition [2] | inhibition [3] | inhibition [4] | inhibition (Frizzled-2) | inhibition [5] | Compound
11 | inactive | inactive | inactive | inactive | inactive | inactive | CSCC[C@H](NC(=O)CNC(=O)[C@H](CCC(=O)O)NC(=O)[C@H](CO)NC(=O)[C@@H](NC(=O)[C@H](CCCCN)NC(=O)[C@H](CC(N)=O)NC(=O)[C@H](CS)NC(C)=O)[C@@H](C)O)C(=O)N[C@@H](CC(=O)O)C(=O)NCC(=O)N[C@@H](CS)C(=O)N[C@@H](C)C(=O)N[C@@H](CC(C)C)C(N)=O (Ac-CNKTSEGMDGCAL-NH2)
12 | inactive | inactive | inactive | inactive | inactive | inactive | CSCC[C@H](NC(=O)CNC(=O)[C@H](C)NC(=O)[C@H](CO)NC(=O)[C@@H](NC(=O)[C@H](CCCCN)NC(=O)[C@H](CC(N)=O)NC(=O)[C@H](CS)NC(C)=O)[C@@H](C)O)C(=O)N[C@@H](CC(=O)O)C(=O)NCC(=O)N[C@@H](CS)C(=O)N[C@@H](CCC(=O)O)C(=O)N[C@@H](CC(C)C)C(N)=O (Ac-CNKTSAGMDGCEL-NH2)
13 | inactive | inactive | inactive | inactive | inactive | inactive | CSCC[C@H](NC(=O)CNC(=O)[C@H](CCC(=O)O)NC(=O)[C@H](CO)NC(=O)[C@@H](NC(=O)[C@H](CCCCN)NC(=O)[C@H](C)NC(=O)[C@H](CS)NC(C)=O)[C@@H](C)O)C(=O)N[C@@H](CC(=O)O)C(=O)NCC(=O)N[C@@H](CS)C(=O)N[C@@H](CCC(=O)O)C(=O)N[C@@H](CC(C)C)C(N)=O (Ac-CAKTSEGMDGCEL-NH2)
14 | inactive | inactive | inactive | inactive | inactive | inactive | CSCC[C@H](NC(=O)CNC(=O)[C@H](CCC(=O)O)NC(=O)[C@H](CO)NC(=O)[C@@H](NC(=O)[C@H](CCCCN)NC(=O)[C@H](CC(N)=O)NC(=O)[C@H](CS)NC(C)=O)[C@@H](C)O)C(=O)N[C@@H](CC(=O)O)C(=O)NCC(=O)N[C@@H](CS)C(=O)N[C@@H](C)C(=O)N[C@@H](C)C(N)=O (Ac-CNKTSEGMDGCAA-NH2)
15 | inactive | inactive | inactive | inactive | inactive | inactive | CSCC[C@H](NC(=O)CNC(=O)[C@H](CCC(=O)O)NC(=O)[C@H](CO)NC(=O)[C@@H](NC(=O)[C@H](CCCCN)NC(=O)[C@H](CC(N)=O)NC(=O)[C@H](CS)NC(C)=O)[C@@H](C)O)C(=O)N[C@@H](C)C(=O)NCC(=O)N[C@@H](CS)C(=O)N[C@@H](CCC(=O)O)C(=O)N[C@@H](CC(C)C)C(N)=O (Ac-CNKTSEGMAGCEL-NH2)
16 | inactive | inactive | inactive | inactive | inactive | inactive | CSCC[C@H](NC(=O)CNC(=O)[C@H](CCC(=O)O)NC(=O)[C@H](CO)NC(=O)[C@@H](NC(=O)[C@H](CCCCN)NC(=O)[C@H](CC(N)=O)NC(=O)[C@H](CS)NC(C)=O)[C@@H](C)O)C(=O)N[C@@H](CC(=O)O)C(=O)NCC(=O)N[C@@H](CS)C(=O)N[C@@H](CCC(=O)O)C(=O)N[C@@H](C)C(N)=O (Ac-CNKTSEGMDGCEA-NH2)
